Data on ten compounds can be found in US5032404A, “Lipsome-incorporation of polyenes” (priority 1989, dated 1991).

≈ marks a conversion by molar mass, not a printed value. Like-named read-outs stand apart in the source and are kept apart here.

Data set [1] deals with C. albicans. Put plainly: Antifungal activity (MIC) of free versus liposomal polyenes. The data set is classed as cell-based. How it is done: The antifungal activity of free-verses liposomal-small polyenes was determined in vivo. These small polyenes included filipin, lagosin and natamycin.
The in vivo toxicity of liposomal small polyenes was evaluated in groups of 8 Hale-Stone mice (6-8 weeks old, body weight =20-25g; University of Texas Science Park, Bastrop, Tex.). Liposomal polyenes were prepared following the protocol set forth in Example 2. Each liposomal-small polyene formulated and evaluated in this study, listed in table 6, was administered to a group of normal and a group of infected mice. These infected mice were prepared by injection with 0.2 ml. of C. albicans according to the protocol set forth in Example 6.
The data on MIC of various liposomal-mepartricin preparations in normal and infected mice is presented for each of the small polyenes (filipin, lagasin natamysin and nystatin) and large polyenes in Table 6.

Data set [2] relates to human RBCs. Description: In vitro toxicity: lysis of human red blood cells (hemoglobin release at 540 nm). To be noted: 45 min.
Description: Lysis of human red blood cells (RBCs) was quantitated by measuring the release of hemoglobin in the supernatants at 540 nm, as described previously (Mehta et al., (1984) Biochem. Biophys, Acta., 770:230-234). […] Release of hemoglobin by hypotonic lysis of the same number of human RBCs by water was taken as 100% positive control, while cells treated with PBS were taken as negative controls.
Lysis of human red blood cells (RBCs) was quantitated by measuring the release of hemoglobin in the supernatants at 540 nm, as described previously (Mehta et al., Biochem. Biophys, Acta., Vol. 770, pp. 230-234 (1984)). […] Release of hemoglobin by hypotonic lysis of the same number of human RBCs by water was taken as 100% positive control, while cells treated with PBS were taken as negative controls.
Lysis of human red blood cells (RBCs) was quantitated by measuring the release of hemoglobin in the supernatants at 540 nm, as described previously (Mehta et al., (1984) Biochem. Biophys. Acta., 770:230-234). […] Release of hemoglobin by hypotonic lysis of the same number of human RBCs by water was taken as 100% positive control, while cells treated with PBS were taken as negative controls.
Lysis of human red blood cells (RBCs) was quantitated by measuring the release of hemoglobin in the supernatants at 540 nm, as described previously (Mehta, et al. (1984) Biochem. Biophys. Acta, 770:230-234). […]
The conditions of data set [3]: principal sterol of fungal versus human cell membranes; cited from earlier work.
In data set [4] the test system is Candida albicans (strain 336). Description: In vitro fungal inhibition (MIC), twofold serial dilution. It is filed as cell-based. How it is done:
The antifungal activity of free- verses liposomalhamycin against Candida albicans (strain 336) was determined in vitro. All strains of yeast were grown overnight at 37° C. on Sabouraud dextrose agar (SDA) plates. All molds were grown at 30° C. on SDA for 3 to 10 days prior to collection of spores. The inoculum was then processed for susceptibility testing as described earlier (Hopfer et al. (1984), Antimicrob. Agents Chemotherap., 25:387-389). A twofold serial dilutron method (Shadomy et al., In E. H. Lennette, et al., (eds.) Manual of Clinical Microbiology, 3rd ed. American Society for Microbiology, Washington, D.C. , pp. 647-653 (1980)) adapted to microtiter plates was used to determine the minimal inhibitory concentration (MIC) of the drugs.
The antifungal activity of free- versus liposomal-lucensomycin against Candida albicans (Strain 336) was determined in vitro. […] The MIC of free-lucensomycin was compared with that of liposomal-lucensomycin.

For data set [5], the system named is HTLV-III/LAV. To be noted: monocyte-related cell line H9; Schaffner et al. (1986); cited from earlier work.
The test system of data set [6] is C. albicans. Description: Single dose therapy of disseminated Candida albicans infection in mice. It is filed as in vivo. To be noted: free-hamycin from 5 microgram/mouse, versus control untreated group.
Protocol: Hale-Stoner mice, six to eight weeks old (body weight, 20-25 g) were purchased from The University of Texas Science Park (Bastrop, TX). The mice (eight per group) were injected with 0.2 ml of C. albicans cell suspension containing 7×10^5 colony-forming units (cfu) via the tail vein. This concentration of cells was consistent in producing a disseminated infection after 48 hr, affecting primarily the liver, spleen, lungs and kidneys.
Mice were infected with C. albicans as described in Example 7. […] The survival of the animals in each group was recorded.

mepartricin: in data set [1], the “MIC, free” value lay within 2.0 to 4.0 µg/mL.
In the case of `CCCCC1C/C=C/C=C/C=C/C=C/C(O[C@@H]2O[C@H](C)[C@@H](O)[C@H](N)[C@@H]2O)CC2OC(O)(CC(O)CC3OC3/C=C/C(=O)O1)CC(O)C2C(=O)O` (some centres unmarked) [Lucensomycin, lucensomycin], the Maximum solubility by setting is: (DMFA) 10000 µg/mL; (DMSO) 20000 µg/mL; (methanol) 500 µg/mL. The “Solubility in DMFA at 1 mg/ml” value (DMFA, 1 mg/ml) is “Yes”. Besides, the “Solubility in DMSO at 1 mg/ml” value (DMSO, 1 mg/ml) is listed as “Yes”. The “Solubility in methanol at 1 mg/ml” value (methanol, 1 mg/ml) is on record as “Partial”. The “Solubility in water/saline at 1 mg/ml” value (water/saline, 1 mg/ml) was “nil”. Moreover, the “Lysis of human RBCs” value in data set [2] (10 mg/ml, 37° C.) is 70%; in data set [2] (30 mg/ml, liposomes without cholesterol), “approximately 100%”. Besides, the “Avidity for ergosterol compared to cholesterol (in words)” value in data set [3] is reported as “greater avidity for ergosterol”. The “Antifungal activity (in words)” value in data set [4] (in vitro, with or without cholesterol where stated) is reported as “high antifungal activity”.
On to `COC(=O)[C@H]1[C@@H]2C[C@@H](O[C@@H]3O[C@H](C)[C@@H](O)[C@H](N)[C@@H]3O)/C=C/C=C/C=C/C=C/C=C/C=C/C=C/[C@H](C)[C@@H](O)[C@@H](C)[C@H](C)OC(=O)C[C@H](O)C[C@H](O)CC[C@@H](O)[C@H](O)C[C@H](O)C[C@](O)(C[C@@H]1O)O2` [amphotericin B methyl ester ascorbate], for which the “Replication of HTLV-III/LAV (in words)” value in data set [5] was “inhibited”.
Regarding hamycin, the “Survival of infected mice (in words)” value in data set [6] is “None of the doses tested improved the survival of infected mice”. Also, the “Avidity for ergosterol compared to cholesterol (in words)” value in data set [3] is reported as “greater avidity for ergosterol”. This compound also registered an MIC in data set [4] (Candida albicans strain 336, in vitro) of 0.25 microgram/ml.
As for `CCCCC[C@@H](O)[C@H]1C(=O)O[C@H](C)[C@@H](O)/C=C/C=C/C=C/C=C/C=C(\C)[C@@H](O)[C@H](O)[C@H](O)C[C@H](O)C[C@H](O)C[C@H](O)C[C@H](O)C[C@@H]1O` [Lagosin, lagosin], in data set [1], the “MIC, free” value is 4.0 µg/mL (≈ 5.96 µM).
Same read-out and setting: then `COc1cc2c(c3oc(-c4ccccc4)cc(=O)c13)C=CC(C)(C)O2` [Candidin, candidin], with 5.0 µg/mL (≈ 15 µM).
The same measure, in the same setting: the same measure for `C[C@@H]1[C@H](O)[C@@H](C)/C=C/C=C/CC/C=C/C=C/C=C/C=C/C(O[C@H]2O[C@H](C)[C@@H](O)[C@H](N)[C@@H]2O)CC2O[C@](O)(CC(O)C(O)CCC(O)CC(O)CC(O)CC(=O)O[C@H]1C)CC(O)C2C(=O)O` (some centres unmarked) [Nystatin]: 1.0 µg/mL (≈ 1.08 µM); for `CCCCC[C@@H](O)[C@H]1C(=O)O[C@H](C)[C@@H](O)/C=C/C=C/C=C/C=C/C=C(\C)[C@@H](O)C[C@H](O)C[C@H](O)C[C@H](O)C[C@H](O)C[C@H](O)C[C@@H]1O` [Filipin, filipin]: 8.0 to 16.0 µg/mL.
On to `C[C@@H]1[C@H](O)[C@@H](C)/C=C/C=C/C=C/C=C/C=C/C=C/C=C/[C@H](O[C@@H]2O[C@H](C)[C@@H](O)[C@H](N)[C@@H]2O)C[C@@H]2O[C@](O)(C[C@@H](O)C[C@@H](O)[C@H](O)CC[C@@H](O)C[C@@H](O)CC(=O)O[C@H]1C)C[C@H](O)[C@H]2C(=O)O` [Amphotericin B], for which the “Replication of HTLV-III/LAV (in words)” value in data set [5] was “inhibited”. In addition, the “MIC, free” value in data set [1] was found to be 0.4 µg/mL (≈ 0.433 µM).
In the case of `C[C@@H]1C/C=C/C=C/C=C/C=C/[C@H](O[C@@H]2O[C@H](C)[C@@H](O)[C@H](N)[C@@H]2O)C[C@@H]2O[C@](O)(C[C@@H](O)C[C@H]3O[C@@H]3/C=C/C(=O)O1)C[C@H](O)[C@H]2C(=O)O` [Natamycin, natamycin], the “MIC, free” value in data set [1] amounted to 4.0 µg/mL (≈ 6.01 µM).
